Where “and” joins values, the source holds several entries; their conditions need not be identical. Equal values may be shown once.
How the values were obtained:
Type in all cases: functional
Rattus norvegicus [1] = test: Concentration of C22:1 ceramide in liver of D-galactosamine treated rats after 18 hr at dose of 1 g/kg intraperitoneally
Rattus norvegicus [2] = test: Concentration of C22:1 ceramide in liver of D-galactosamine treated rats after 24 hr at dose of 1 g/kg intraperitoneally
Rattus norvegicus [3] = test: Concentration of C22:2 ceramide in liver of D-galactosamine treated rats after 18 hr at dose of 1 g/kg intraperitoneally
Rattus norvegicus [4] = test: Concentration of C22:2 ceramide in liver of D-galactosamine treated rats after 24 hr at dose of 1 g/kg intraperitoneally
Rattus norvegicus [5] = test: Concentration of C24:0 ceramide in liver of D-galactosamine treated rats after 18 hr at dose of 1 g/kg intraperitoneally
Rattus norvegicus [6] = test: Concentration of C24:0 ceramide in liver of D-galactosamine treated rats after 24 hr at dose of 1 g/kg intraperitoneally
Rattus norvegicus [7] = test: Concentration of C24:1 ceramide in liver of D-galactosamine treated rats after 18 hr at dose of 1 g/kg intraperitoneally
Rattus norvegicus [8] = test: Concentration of C24:1 ceramide in liver of D-galactosamine treated rats after 24 hr at dose of 1 g/kg intraperitoneally
Rattus norvegicus [9] = test: Concentration of C24:2 ceramide in liver of D-galactosamine treated rats after 18 hr at dose of 1 g/kg intraperitoneally
Rattus norvegicus [10] = test: Concentration of C24:2 ceramide in liver of D-galactosamine treated rats after 24 hr at dose of 1 g/kg intraperitoneally
Rattus norvegicus [11] = test: Plasma GOT level was observed after 18 hr of D-galactosamine administration at 1 g/kg intraperitoneally
Rattus norvegicus [12] = test: Plasma GOT level was observed after 24 hr of D-galactosamine administration at 1 g/kg intraperitoneally
Rattus norvegicus [13] = test: Plasma GPT level was observed after 18 hr of D-galactosamine administration at 1 g/kg intraperitoneally
Rattus norvegicus [14] = test: Plasma GPT level was observed after 24 hr of D-galactosamine administration at 1 g/kg intraperitoneally
Rattus norvegicus [15] = test: Concentration of C16:0 ceramide in liver of D-galactosamine treated rats after 18 hr at dose of 1 g/kg intraperitoneally
Rattus norvegicus [16] = test: Concentration of C16:0 ceramide in liver of D-galactosamine treated rats after 24 hr at dose of 1 g/kg intraperitoneally
Rattus norvegicus [17] = test: Concentration of C18:0 ceramide in liver of D-galactosamine treated rats after 18 hr at dose of 1 g/kg intraperitoneally
Rattus norvegicus [18] = test: Concentration of C18:0 ceramide in liver of D-galactosamine treated rats after 24 hr at dose of 1 g/kg intraperitoneally
Rattus norvegicus [19] = test: Concentration of C20:0 ceramide in liver of D-galactosamine treated rats after 18 h at dose of 1 g/kg intraperitoneally
Rattus norvegicus [20] = test: Concentration of C20:0 ceramide in liver of D-galactosamine treated rats after 24 hr at dose of 1 g/kg intraperitoneally
Rattus norvegicus [21] = test: Concentration of C22:0 ceramide in liver of D-galactosamine treated rats after 18 hr at dose of 1 g/kg intraperitoneally
Rattus norvegicus [22] = test: Concentration of C22:0 ceramide in liver of D-galactosamine treated rats after 24 hr at dose of 1 g/kg intraperitoneally
Rattus norvegicus [23] = test: Concentration of C16:0 ceramide in plasma of D-galactosamine treated rats after 18 h at dose of 1 g/kg intraperitoneally
Rattus norvegicus [24] = test: Concentration of C16:0 ceramide in plasma of D-galactosamine treated rats after 24 hr at dose of 1 g/kg intraperitoneally
Rattus norvegicus [25] = test: Concentration of C18:0 ceramide in plasma of D-galactosamine treated rats after 18 h at dose of 1 g/kg intraperitoneally
Rattus norvegicus [26] = test: Concentration of C18:0 ceramide in plasma of D-galactosamine treated rats after 24 hr at dose of 1 g/kg intraperitoneally
Rattus norvegicus [27] = test: Concentration of C20:0 ceramide in plasma of D-galactosamine treated rats after 18 hr at dose of 1 g/kg intraperitoneally
Rattus norvegicus [28] = test: Concentration of C20:0 ceramide in plasma of D-galactosamine treated rats after 24 hr at dose of 1 g/kg intraperitoneally
Rattus norvegicus [29] = test: Concentration of C22:1 ceramide in plasma of D-galactosamine treated rats after 18 hr at dose of 1 g/kg intraperitoneally
Rattus norvegicus [30] = test: Concentration of C22:2 ceramide in plasma of D-galactosamine treated rats after 18 hr at dose of 1 g/kg intraperitoneally
Rattus norvegicus [31] = test: Concentration of C22:2 ceramide in plasma of D-galactosamine treated rats after 24 hr at dose of 1 g/kg intraperitoneally
Rattus norvegicus [32] = test: Concentration of C24:0 ceramide in plasma of D-galactosamine treated rats after 18 hr at dose of 1 g/kg intraperitoneally
Rattus norvegicus [33] = test: Concentration of C24:0 ceramide in plasma of D-galactosamine treated rats after 24 hr at dose of 1 g/kg intraperitoneally
Rattus norvegicus [34] = test: Concentration of C24:1 ceramide in plasma of D-galactosamine treated rats after 18 hr at dose of 1 g/kg intraperitoneally
Rattus norvegicus [35] = test: Concentration of C24:1 ceramide in plasma of D-galactosamine treated rats after 24 hr at dose of 1 g/kg intraperitoneally
Rattus norvegicus [36] = test: Concentration of C24:2 ceramide in plasma of D-galactosamine treated rats after 18 hr at dose of 1 g/kg intraperitoneally

N[C@H]1C(O)O[C@H](CO)[C@@H](O)[C@@H]1O (stereo partly specified) [GLUCOSAMINE]
Activity (Rattus norvegicus [1]): 4.6 nmol/g tissue | Activity (Rattus norvegicus [2]): 7.1 nmol/g tissue | Activity (Rattus norvegicus [3]): 4.8 nmol/g tissue | Activity (Rattus norvegicus [4]): 7 nmol/g tissue | Activity (Rattus norvegicus [5]): 173.7 nmol/g tissue | Activity (Rattus norvegicus [6]): 166.3 nmol/g tissue | Activity (Rattus norvegicus [7]): 59.6 nmol/g tissue | Activity (Rattus norvegicus [8]): 67.2 nmol/g tissue | Activity (Rattus norvegicus [9]): 12.4 nmol/g tissue | Activity (Rattus norvegicus [10]): 12.4 nmol/g tissue | Activity (Rattus norvegicus [11]): 2516 Karmen | Activity (Rattus norvegicus [12]): 18480 Karmen | Activity (Rattus norvegicus [13]): 1208 Karmen | Activity (Rattus norvegicus [14]): 7280 Karmen | Activity (Rattus norvegicus [15]): 43.9 nmol/g tissue | Activity (Rattus norvegicus [16]): 36.2 nmol/g tissue | Activity (Rattus norvegicus [17]): 11.1 nmol/g tissue | Activity (Rattus norvegicus [18]): 11.5 nmol/g tissue | Activity (Rattus norvegicus [19]): 3.9 nmol/g tissue | Activity (Rattus norvegicus [20]): 5.6 nmol/g tissue | Activity (Rattus norvegicus [21]): 37.8 nmol/g tissue | Activity (Rattus norvegicus [22]): 35.6 nmol/g tissue | Activity (Rattus norvegicus [23]): 1.06 nmol/g tissue | Activity (Rattus norvegicus [24]): 3.13 nmol/g tissue | Activity (Rattus norvegicus [25]): 0.18 nmol/g tissue | Activity (Rattus norvegicus [26]): 0.9 nmol/g tissue | Activity (Rattus norvegicus [27]): 0.42 nmol/g tissue | Activity (Rattus norvegicus [28]): 0.65 nmol/g tissue | Activity (Rattus norvegicus [29]): 5.45 nmol/g tissue | Activity (Rattus norvegicus [30]): 2.57 nmol/g tissue | Activity (Rattus norvegicus [31]): 2.33 nmol/g tissue | Activity (Rattus norvegicus [32]): 6.31 nmol/g tissue | Activity (Rattus norvegicus [33]): 26.31 nmol/g tissue | Activity (Rattus norvegicus [34]): 5.78 nmol/g tissue | Activity (Rattus norvegicus [35]): 13.83 nmol/g tissue | Activity (Rattus norvegicus [36]): 0.98 nmol/g tissue and 1.94 nmol/g tissue
